Results: PMC10791743, “Selective CK1α degraders exert antiproliferative activity against a broad range of human cancer cell lines” (Nature Communications, 2024)

System: β-catenin
Test: HiBiT-β-catenin stabilization, live-cell kinetic (HEK293 cells)
Type: cell-based
Protocol: Next, TMT-proteomics studies were performed to determine broader degradation selectivity profiles of our two lead compounds. […] As expected, increased protein levels of p53, p21, and β-catenin were detected in the treated cells. To investigate the relationship between β-catenin stabilization relative to CK1α degradation, kinetic monitoring of endogenously tagged HiBiT-β-catenin was performed in live cells and compared to our measurements of CK1α degradation kinetics. Treatment of cells with the lead compounds from each series led to dose-dependent stabilization of β-catenin levels with slower kinetics compared to the observed rapid degradation of CK1α. […]
White 96-well assay plates (Corning, Cat. # 3017) were seeded with 30,000 cells/well in growth media for CK1α-HiBiT HEK293 LgBiT stable and HiBiT-β-catenin HEK293 LgBiT stable and incubated overnight at 37 °C and 5% CO2. […] Luminescence was allowed to equilibrate for all plates for 2.5 h. […] Luminescence was read every 5 min for 24 h. At the end of all 24-h cycles, CellTiter Glo 2.0 (Promega, Cat. #G9242) was added to the plates, incubated for at least 10 min and luminescence was read using the GloMax Discover.
Relative protein level was determined based on normalization to the DMSO control and reported at Fractional RLUs. […]

O=C1CCC(N2Cc3cc(Nc4noc5ccccc45)ccc3C2=O)C(=O)N1 (stereo not shown) [SJ3149]
Time to detectable increase of β-catenin: ≤ 30 min
